In patent US20170165317A1, “METHOD FOR MITIGATING OR ALLEVIATING SYNAPTIC AND COGNITIVE DEFICITS” (Trustees of Dartmouth College, priority 2013, published 2017):

How the values were obtained:
APP/PS1 mice = test: Novel object location task after i.c.v. infusion by osmotic minipump; type: in vivo, mouse; settings: VO-OHpic infused 3-4 weeks into brain ventricles
Procedure: APP/PS1 and wild-type mice were anesthetized with isofluorane, and i.c.v. delivery cannulas (brain alzet kit III) were implanted with a stereotaxic frame (KOPF Instruments) at the following coordinates according to the bregma: AP, −0.5 mm; ML, 1 mm; and DV, −2.2 mm. Osmotic minipumps (Alzet) were filled with artificial cerebrospinal fluid (aCSF) with or without PTEN inhibitor VO-OHpic (2.5 μM) and equilibrated in 0.9% NaCl at 37° C. for 48 hours. They were attached to the i.c.v. cannula tubing and subcutaneously implanted at the back. After 21 days, behavioral testing was started as described herein. One month after implantation, mice were sacrificed and the brains were sliced stained with Nissl to verify the location of the cannula. Animal manipulation and data analysis was carried out blind with respect to genotype and treatment.
Novel-Object Location. This assay was chosen because it is not intrinsically stressful. This factor, in mice, crucially affects cognitive performance in other spatial learning paradigms (e.g., Morris water maze). The memory tests were composed of three phases—“habituation”, “sample” and “choice” trials. Mice were first habituated individually to an empty open-field box (35×35×15 high cm) for 30 minutes. A sample trial (object exposure) consisted of placing a mouse into the test box which contained two identical objects. […] A recognition index was calculated by dividing the total time spent exploring the displaced object by the total time spent exploring both objects during the test session. […]
It was posited that if early Aβ-induced cognitive impairment results from a general synaptic bias toward LTD events (Selkoe (2002) Science 298:789-791), dampening this form of synaptic plasticity might prevent cognitive decay. Therefore, it was determined whether in vivo inhibition of PTEN, a lipid phosphatase that is involved in LTD (Jurado, et al. (2010) EMBO J. 29:2827-2840), would rescue cognitive deficits in APP/PS1 mice. […]

[1] = test system: APPswe/lnd-expressing neurons; test: Paired whole-cell recording of AMPAR-mediated EPSCs in APPswe/lnd-expressing CA1 neurons of organotypic hippocampal slices; type: cell-based, rat; settings: 15 nM bPV(HOpic) or 50 nM VO-OHpic during expression
Procedure: The effect of recombinant protein expression on synaptic transmission was evaluated by simultaneous double whole-cell recordings from pairs of nearby infected and uninfected CA1 neurons, under voltage clamp, while stimulating presynaptic Schaffer collateral fibers (under this configuration, recombinant proteins are expressed exclusively in the postsynaptic neuron).
The different versions of APP (APPwt, APPswe/lnd APPMV) and EGFP were co-expressed using an internal ribosomal entry site (IRES) construct. The EGFP-tagged versions of PTEN have been described (Jurado, et al. (2010) EMBO J. 29:2827-2840). All constructs were prepared in pSinRep5 for expression using Sindbis virus. Recombinant proteins were expressed in hippocampal CA1 pyramidal neurons from organotypic slice cultures. Organotypic hippocampal slices were prepared from postnatal day 5-7 rats and cultured during 6-8 days.
The external solution (aCSF) contained 119 mM NaCl, 2.5 mM KCl, 1 mM NaH2PO4, 11 mM glucose, 26 mM NaHCO3, 4 mM MgCl2, 4 mM CaCl2, 100 μM picrotoxin and 2 μM 2-chloroadenosine, pH 7.4, and was gassed with 95% O2 and 5% CO2. […] Bipolar stimulating electrodes were placed over Schaffer collateral fibers between 250 and 300 μm from the CA1 recorded cells, and synaptic responses were evoked with single voltage pulses (200 μs, up to 30 V). […]

## O=C(O)c1ncccc1O.O=C(O)c1ncccc1O.[O]=[V][O-] [VO-OHpic]
APP/PS1 mice; APP/PS1 mice, P=0.02 vs vehicle-infused APP/PS1, recognition index similar to wild-type
  performance in novel object location task (recognition index): significant improvement
APP/PS1 mice; wild-type mice
  performance in novel object location task (recognition index): did not affect the performance
[1]
  AMPAR-mediated EPSCs in APPswe/lnd-expressing neurons relative to uninfected cells: no longer depressed
